Patent US10695334B2, “Heteroaromatic carboxamide derivatives as plasma kallikrein inhibitors” (Boehringer Ingelheim International GmbH, priority 2018, dated 2020)

What was measured:
Format in all cases: biochemical
Human PKK [1] = molecular target: T1, Human PKK (Homo sapiens (Human), UniProt P03952); experiment: Inhibition of PKK, endpoint assay (human PKK); conditions: substrate H-Pro-Phe-Arg-AMC, 1 h room temperature
Description: Subsequently, PPACK II (Calbiochem) was added as a stop solution to achieve a final concentration of 1 μM and fluorescence was measured using an Envision Reader (PerkinElmer) with the wavelength excitation setting of 355 nm and the wavelength emission setting of 460 nm.

Human PKK [2] = molecular target: T1, Human PKK; experiment: Inhibition of PKK (Ki), kinetic assay; conditions: 24° C., IC50 corrected for KM
[3] = molecular target: PKK in kaolin activated human platelet poor plasma (Homo sapiens (Human), UniProt P03952); experiment: Inhibition of PKK in kaolin activated human PPP; conditions: global fit over 25, 75, 250, 750 μg/mL kaolin
Description: Platelet poor plasma (PPP) obtained from human wholeblood, anticoagulated with Na-Citrat, was incubated with various concentrations of the test compound together with either 25, 75, 250, or 750 μg/mL kaolin in assay buffer for 20 min at 37° C. such that for each kaolin dose used a concentration response was obtained for the test compound.

human TK1 = human TK1 (Homo sapiens (Human), UniProt P06870); experiment: Inhibition of TK1 (Ki); conditions: column head prints IC50, text above the table says Ki values
Summary of the method: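 Trypsin-activated human TK1 (31.25 nM or 1 U/mL) incubated at 24 °C with 0.1 mM H-Pro-Phe-Arg-AMC and compound in pH 7.8 Tris/NaCl buffer with 0.1% BSA, 1% DMSO; fluorescence read kinetically over 16 min. IC50 from Vmax (2-12 min) four-parameter fit, converted to Ki using substrate KM.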

human TK1, sequence (P06870 25-262): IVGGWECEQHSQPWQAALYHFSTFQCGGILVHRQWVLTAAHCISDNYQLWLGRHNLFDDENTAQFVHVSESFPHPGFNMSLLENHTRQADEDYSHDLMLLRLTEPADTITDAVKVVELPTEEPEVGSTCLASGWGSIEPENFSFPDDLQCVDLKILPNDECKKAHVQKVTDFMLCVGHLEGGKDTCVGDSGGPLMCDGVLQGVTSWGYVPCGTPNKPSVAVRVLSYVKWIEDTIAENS
T1 sequence (P03952 391-638): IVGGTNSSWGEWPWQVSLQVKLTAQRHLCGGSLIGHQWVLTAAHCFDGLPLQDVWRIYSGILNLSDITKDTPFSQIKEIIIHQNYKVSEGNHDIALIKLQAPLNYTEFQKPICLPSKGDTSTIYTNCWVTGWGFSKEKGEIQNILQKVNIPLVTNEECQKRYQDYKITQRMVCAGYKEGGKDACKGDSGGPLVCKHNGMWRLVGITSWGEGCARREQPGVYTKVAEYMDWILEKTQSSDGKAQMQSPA
T1 sequence (P03952 20-390 partner): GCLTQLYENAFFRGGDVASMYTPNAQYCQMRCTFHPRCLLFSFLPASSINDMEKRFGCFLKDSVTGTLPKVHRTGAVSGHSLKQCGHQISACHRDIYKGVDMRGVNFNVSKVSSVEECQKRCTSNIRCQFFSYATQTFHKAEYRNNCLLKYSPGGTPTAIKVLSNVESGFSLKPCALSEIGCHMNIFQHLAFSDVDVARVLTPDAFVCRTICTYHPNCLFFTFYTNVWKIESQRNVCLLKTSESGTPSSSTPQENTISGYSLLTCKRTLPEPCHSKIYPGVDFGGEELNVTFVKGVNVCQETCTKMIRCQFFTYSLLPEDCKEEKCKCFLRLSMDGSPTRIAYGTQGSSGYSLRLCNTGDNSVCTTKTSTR
PKK in kaolin activated human platelet poor plasma, sequence (P03952 391-638): as the sequence (P03952 391-638) above
PKK in kaolin activated human platelet poor plasma, sequence (P03952 20-390 partner): as the sequence (P03952 20-390 partner) above

| IC50 (Human PKK [1]) | Ki (Human PKK [2]) | IC90 [3] | IC50 (human TK1) | SMILES |
| --- | --- | --- | --- | --- |
| 4 nM | 1 nM | 2840 nM | > 10000 nM | Cc1nc(N2CCC(C(F)F)C2)ccc1Cn1cc(C(=O)N[C@@H]2CCc3c2n[nH]c3C)cn1 (stereo partly drawn) [Example 46, 1-({6-[3-(Difluoromethyl)pyrrolidin-1-yl]-2-methylpyridin-3-yl}methyl)-N-[(6R)-3-methyl-2H,4H,5H,6H-cyclopenta[c]pyrazol-6-yl]-1H-pyrazole-4-carboxamide] |
| 5 nM | 6 nM | 3140 nM | > 10000 nM | Cc1nc(N2CC3CC3C2)ccc1Cn1cc(C(=O)N[C@@H]2CCc3c2n[nH]c3C)nc1C(F)(F)F (stereo partly drawn) [Example 98, 1-[(6-{3-Azabicyclo[3.1.0]hexan-3-yl}-2-methyl-pyridin-3-yl)methyl]-N-[(6R)-3-methyl-2H,4H,5H,6H-cyclopenta[c]pyrazol-6-yl]-2-(trifluoromethyl)-1H-imidazole-4-carboxamide] |
| 4 nM | 3 nM | 1820 nM | > 10000 nM | Cc1nc(N2CC3CC3C2)ccc1Cc1cc(C(=O)N[C@@H]2CCc3c(C)n[nH]c32)sc1C#N (stereo partly drawn) [Example 8, 4-[(6-{3-Azabicyclo[3.1.0]hexan-3-yl}-2-methylpyridin-3-yl)methyl]-5-cyano-N-[(6R)-3-methyl-1H,4H,5H,6H-cyclopenta[c]pyrazol-6-yl]thiophene-2-carboxamide] |

| SMILES | IC50 (Human PKK [1]) | Ki (Human PKK [2]) | IC90 [3] | IC50 (human TK1) |
| --- | --- | --- | --- | --- |
| Cc1nc(N2CC3CC3C2)ccc1Cn1cc(C(=O)NC2CCc3c(C)n[nH]c32)cn1 (stereo not shown) [Example 1, 1-[(6-{3-Azabicyclo[3.1.0]hexan-3-yl}-2-methylpyridin-3-yl)methyl]-N-{3-methyl-1H,4H,5H,6H-cyclopenta[c]pyrazol-6-yl}-1H-pyrazole-4-carboxamide] | 2 nM | 1 nM | 705 nM | > 10000 nM |
